Test results taken from paper PMC9871035, “Discovery of structural and functional transition sites for membrane-penetrating activity of sheep myeloid antimicrobial peptide-18” (Scientific Reports, 2023).
Where no end group is shown, it is not given here.

Columns and labels:
[1] = system: Gram-negative and Gram-positive bacteria; experiment: MIC over the panel of six strains (GM, range); format: cell-based; conditions: six strains of Table 1; average value ± SD
Experimental: The antimicrobial activity of the peptides, i.e., their MIC values, were determined against Escherichia coli (KCTC 1682), Salmonella typhimurium (KCTC 1926), Pseudomonas aeruginosa (KCTC 1637), Bacillus subtilis (KCTC 3068), Staphylococcus epidermidis (KCTC 1917), Staphylococcus aureus (KCTC 1621), and Methicillin-resistant Staphylococcus aureus (CCARM 3089, 3090 and 3095) using broth microdilution in a 96-well plate according to existing methodologies[23]. Bacteria were grown at 37 ℃ on a spinner culture until a mid-log phase diluted to 2 × 10^6 CFU/ml in 1% peptone. The bacterial suspension was added to 100 μl of the sample solution (i.e., serial twofold dilution in 1% peptone). […] All experiments were performed in triplicate and included growth and sterility controls.

[2] = Estimation of helicity from CD; format: physicochemical; conditions: peptide 100 μM, from [θ]mr at 222 nm; for % α-helix, H2O: H2O (10 mM sodium phosphate, pH 7.0)
Experimental: CD spectra were measured on a J-810 spectropolarimeter (JASCO) using a 1.0 mm path-length cell. […] Three scans were conducted from 190 to 260 nm and the data are expressed in terms of mean residue molar ellipticity [θ]mr. The mean residue ellipticity, [θ]mr (deg cm^2 dmol^-1), was calculated according to the equation [θ]mr = (100θ)/(clN), where θ is the measured ellipticity (mdeg), c is the sample concentration (mM), l is the path length (cm), and N is the number of amino acids. Percent α-helicity was calculated using the equation ([θ]mr222nm—3000)/(− 39,000 × 100)[29]. Reference values for [θ]mr222nm = 0 and 36,000 (deg cm^2 dmol^−1) were used for 0% and 100% helicity, respectively[30].

[3] = system: S. aureus (KCTC 1621) cytoplasmic membrane; experiment: Membrane depolarization assay (diSC3-5); format: cell-based, Staphylococcus aureus; conditions: 2 × MIC, monitored over 1400 s
Experimental: The cytoplasmic membrane depolarization activity of the peptides was measured using the membrane potential sensitive dye diSC3-5, as previously described[31],[32]. Briefly, S. aureus (KCTC 1621) was grown at 37 ℃ with agitation until the mid-log phase (OD600 = 0.3) and was harvested by centrifugation. Cells are washed twice with a buffer solution (i.e., 20 mM Glucose, 5 mM HEPES, 100 mM KCl; pH 7.4) and were resuspended to an OD600 = 0.05 in the buffer. Membrane depolarization was monitored by recording changes in the intensity of fluorescence emission of diSC3-5 after peptide concentration.

S. aureus (KCTC 1621) [4] = experiment: SYTOX Green uptake assay; format: cell-based, Staphylococcus aureus; conditions: 2 × MIC, SYTOX 0.1 μM, PBS pH 7.4
Experimental: The membrane permeabilization activity of the peptides was determined by using the SYTOX Green uptake assay, as described previously[33]. S. aureus (KCTC 1621) grown at 37 ℃ until the mid-log phase (OD600 = 0.4). The cell pellet was washed using PBS (pH 7.4) and was diluted to an OD600 = 0.05 in PBS (pH 7.4); SYTOX was added to the final concentration of 0.1 μM and this solution was pre-incubated in the dark at 4 ℃ for 16 h. Fluorescence was monitored using a F-4500 FL spectrophotometer (Hitachi, Japan) and excitation and emission wavelengths of 480 nm and 520 nm, respectively.

E. coli (KCTC 1682) = experiment: Confocal laser scanning microscopy of FITC-labeled peptides; format: cell-based, Escherichia coli; conditions: FITC-labeled peptide 10 μM, 37 ℃, 30 min
Experimental: (§1) E. coli (KCTC 1682) and S. aureus (KCTC 1621) were grown at mid-log phase and washed three times with PBS (pH 7.4). The bacteria were diluted at 10^6 CFU/ml and incubated with FITC-labeled peptides (10 μM) at 37 ℃ for 30 min. After incubation, this solution was washed thrice with PBS and was then transferred to a confocal dish. […] Fluorescent images were obtained with a 488 nm bandpass filter for FITC excitation.

S. aureus (KCTC 1621) [5] = experiment: as above; format: cell-based, Staphylococcus aureus; conditions: FITC-labeled peptide 10 μM, 37 ℃, 30 min
Experimental: as §1

Substance | GM (geometric mean of MIC values from selected bacterial strains) [1] | % α-helix, 50% TFE [2] [%] | % α-helix, H2O [2] [%] | Membrane depolarization of S. aureus (diSC3-5 fluorescence) [3] | SYTOX Green uptake (fluorescence) (S. aureus (KCTC 1621) [4]) | Localization of peptide in E. coli (E. coli (KCTC 1682)) | Localization of peptide in S. aureus (S. aureus (KCTC 1621) [5])
RALRRLARKIAHAVKKYG-NH2 [G2,7,13A] | 4.3(± 2.9) μM | 44.4 | 5.7 | induced a significant membrane depolarization | induced the maximal fluorescence | likely bound to the cell membrane | likely bound to the cell membrane
RGLRRLARKIAHAVKKYG-NH2 [G7,13A] | 4.5(± 2.9) μM | 33.9 | 7.6 | induced a significant membrane depolarization | induced the maximal fluorescence |  | 
RGLRRLG-NH2 [R1-G7] | > 64 µM | 6.9 | 5.6 |  |  |  | 
